Measured values from patent US8697888B2, “Substituted (1-(methylsulfonyl)azetidin-3-yl)(heterocycloalkyl)methanone analogs as antagonists of muscarinic acetylcholine M1 receptors” (Vanderbilt University, priority 2012, dated 2014).

Target: T1, mAChR M1 (UniProt P11229)
T1 sequence (P11229 1-460): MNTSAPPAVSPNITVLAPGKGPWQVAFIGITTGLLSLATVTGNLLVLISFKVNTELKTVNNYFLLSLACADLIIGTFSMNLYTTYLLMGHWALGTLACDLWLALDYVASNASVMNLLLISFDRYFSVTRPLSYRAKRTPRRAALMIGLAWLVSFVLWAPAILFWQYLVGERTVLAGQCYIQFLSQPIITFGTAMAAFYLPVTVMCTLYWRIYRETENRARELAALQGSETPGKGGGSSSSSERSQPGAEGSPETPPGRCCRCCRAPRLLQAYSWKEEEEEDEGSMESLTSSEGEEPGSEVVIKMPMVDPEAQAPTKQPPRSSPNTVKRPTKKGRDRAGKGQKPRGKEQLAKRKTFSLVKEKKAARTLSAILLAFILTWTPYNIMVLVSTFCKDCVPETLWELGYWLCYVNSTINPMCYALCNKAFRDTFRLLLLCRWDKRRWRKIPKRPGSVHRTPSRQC
Assay: mAChR M1 cell-based functional assay (calcium mobilization, antagonist mode)
Conditions: for IC50: concentration of antagonist decreasing calcium flux by 50%, EC80 acetylcholine response, CHO-K1 cells expressing mAChR M1, read-out: Potency (IC50)
Excerpt: Chinese hamster ovary (CHO-K1) cells stably expressing rat (r)M1 were purchased from the American Type Culture Collection and cultured according to their indicated protocol. CHO cells stably expressing human (h)M2, hM3, and hM5 were described previously (Levey, et al., 1991); hM1 and hM4 cDNAs were purchased from Missouri S&T cDNA Resource; rM4 cDNA was provided by T. I. Bonner (National Institutes of Health, Bethesda, Md.). rM2 and rM3 were cloned from a rat brain cDNA library and sequence verified. hM1, rM2, rM3, hM4, and rM4 cDNAs were used to stably transfect CHO-K1 cells purchased from the American Type Culture Collection using Lipofectamine-2000. To make stable rM2, hM2, rM3, hM4, and rM4 cell lines for use in calcium mobilization assays, these cells also were stably transfected with a chimeric G-protein (Gqi5) (provided by B. R. Conklin, University of California, San Francisco) using Lipofectamine 2000. rM1, hM1, rM3, hM3, rM5, and hM5 cells were grown in Ham's F-12 medium containing 10% heat-inactivated fetal bovine serum (FBS), 20 mM HEPES, and 50 μg/mL G418 sulfate. rM2-Gqi5, hM2-Gqi5, and hM4-Gqi5 cells were grown in the same medium also containing 500 μg/mL Hygromycin B. Stable rM4-Gqi5 cells were grown in DMEM containing 10% heat-inactivated FBS, 20 mM HEPES, 400 μg/mL G418 sulfate, and […].
For high throughput measurement of antagonist inhibited increases in intracellular calcium, CHO-K1 cells stably expressing muscarinic receptors were plated in growth medium lacking G418 and hygromycin at 15,000 cells/20 μL/well in Greiner 384-well black-walled, tissue culture (TC)-treated, clear-bottom plates (VWR). Cells were incubated overnight at 37° C. and 5% CO2. The next day, cells were washed using an ELX 405 (BioTek) with four washes (80 μL) of assay buffer then aspirated to 20 μL. Next, 20 μL of 16 μM Fluo-4/acetoxymethyl ester (Invitrogen, Carlsbad, Calif.) prepared as a 2.3 mM stock in DMSO and mixed in a 1:1 ratio with 10% (w/v) Pluronic F-127 and diluted in assay buffer was added to the wells and the cell plates were incubated for 50 min at 37° C. and 5% CO2. Dye was removed by washing with the ELX 405 (four 80 μL washes of assay buffer) then aspirated to 20 μL. Compound master plates were formatted in an 11 point CRC format (1:3 dilutions) in 100% DMSO with a starting concentration of 10 mM using the BRAVO liquid handler (Agilent). Test compound CRCs were then transferred to daughter plates (240 nL) using the Echo acoustic plate reformatter (Labcyte, Sunnyvale, Calif.) and then diluted into assay buffer (40 μL) to a 2× stock using a Thermo Fisher Combi (Thermo Fisher Scientific, Waltham, Mass.).
Calcium flux was measured using the Functional Drug Screening System (FDSS) 6000 (Hamamatsu Corporation, Tokyo, Japan) as an increase in the fluorescent static ratio. Compounds were applied to cells (20 μL, 2×) using the automated system of the FDSS 6000 at 4 s into the 300 s protocol and the data were collected at 1 Hz. At 144 s into the 300 s protocol, 10 μL of an EC20 concentration of the muscarinic receptor agonist acetylcholine was added (5×), followed by the addition of 12 μL an EC80 concentration of acetylcholine at the 230 s time point (5×). Agonist activity was analyzed as a concentration-dependent increase in calcium mobilization upon compound addition. Positive allosteric modulator activity was analyzed as a concentration-dependent increase in the EC20 acetylcholine response. Antagonist activity was analyzed as a concentration-dependent decrease in the EC80 acetylcholine response. Concentration-response curves were generated using a four-parameter logistical equation in XLfit curve fitting software (IDBS, Bridgewater, N.J.) for Excel (Microsoft, Redmond, Wash.) or Prism (GraphPad Software, Inc., San Diego, Calif.).
The calcium mobilization assay was used to determine “potency”.

[1] = activity remaining at top dose of 30 μM test compound, as percentage of the response to an approx. EC80 concentration of ACh
[2] = dash = baseline or about zero remaining activity (table footnote)

## O=C(C1CN(S(=O)(=O)c2ccc3cn[nH]c3c2)C1)N1CCN(c2ccncc2)CC1 [B37]
[1]
  Remaining Activity (%): 26%
  IC50: > 10 µM

## Cn1nccc1-c1cccc(S(=O)(=O)N2CC(C(=O)N3CCN(c4ccncc4)CC3)C2)c1 [B65]
[1]
  Remaining Activity (%): ≧80%
  IC50: > 10 µM

## O=C(C1CN(S(=O)(=O)c2cccc3ncccc23)C1)N1CCN(c2ccncc2)CC1 [B26]
[2]
  Remaining Activity (%): — (Unless otherwise indicated with a numerical value, the percent remaining activity is baseline or about zero, i.e. as indicated by “—”)

## CCC(C)S(=O)(=O)N1CC(C(=O)N2CCN(c3ccncc3)CC2)C1 (stereo not shown) [B46]
[1]
  Remaining Activity (%): 52%
  IC50: > 10 µM

## O=C(C1CN(S(=O)(=O)c2cccc3cnccc23)C1)N1CCC(c2cccnc2)C1 (stereo not shown) [B48]
[1]
  Remaining Activity (%): 30%
  IC50: > 10 µM

## O=C(C1CN(S(=O)(=O)c2cccc3ncccc23)C1)N1CC2CN(c3ccncc3)CC2C1 (stereo not shown) [B52]
  IC50: 3.5 µM
[2]
  Remaining Activity (%): — (Unless otherwise indicated with a numerical value, the percent remaining activity is baseline or about zero, i.e. as indicated by “—”)

## Cc1ccnc(S(=O)(=O)N2CC(C(=O)N3CCN(c4ccncc4)CC3)C2)c1 [B40]
[1]
  Remaining Activity (%): 41%
  IC50: > 10 µM

## O=C(C1CN(S(=O)(=O)c2cccc3c2OCCO3)C1)N1CCN(c2ccncc2)CC1 [B45]
[1]
  Remaining Activity (%): 27%
  IC50: > 10 µM

## Cc1nc(-c2cccc(S(=O)(=O)N3CC(C(=O)N4CCN(c5ccncc5)CC4)C3)c2)no1 [B71]
[1]
  Remaining Activity (%): ≧80%
  IC50: > 10 µM

## O=C(C1CN(S(=O)(=O)c2cccc3c(Cl)nc(Cl)cc23)C1)N1CCN(c2ccncc2)CC1 [B30]
[2]
  Remaining Activity (%): — (Unless otherwise indicated with a numerical value, the percent remaining activity is baseline or about zero, i.e. as indicated by “—”)

## O=C(C1CN(S(=O)(=O)c2ccc3ncccc3c2)C1)N1CCN(c2ccncc2)CC1 [B15]
[2]
  Remaining Activity (%): — (Unless otherwise indicated with a numerical value, the percent remaining activity is baseline or about zero, i.e. as indicated by “—”)

## O=C(C1CN(S(=O)(=O)c2cccc(OC(F)F)c2)C1)N1CCN(c2ccncc2)CC1 [B68]
[1]
  Remaining Activity (%): ≧80%
  IC50: > 10 µM

## O=C(C1CN(S(=O)(=O)C2CCCCC2)C1)N1CC2CN(c3ccncc3)CC2C1 (stereo not shown) [B86]
[1]
  Remaining Activity (%): ≧80%
  IC50: > 10 µM

## O=C(C1CN(S(=O)(=O)c2ccc3[nH]c(=O)oc3c2)C1)N1CCN(c2ccncc2)CC1 [B75]
[1]
  Remaining Activity (%): ≧80%
  IC50: > 10 µM

## O=C(C1CN(S(=O)(=O)c2cnc3ccccc3c2)C1)N1CCN(c2ccncc2)CC1 [B39]
[1]
  Remaining Activity (%): 48%
  IC50: > 10 µM

## CN1C(=O)Cc2cc(S(=O)(=O)N3CC(C(=O)N4CCN(c5ccncc5)CC4)C3)ccc21 [B49]
[1]
  Remaining Activity (%): 48%
  IC50: > 10 µM

## O=C(C1CN(S(=O)(=O)c2cccc3nsnc23)C1)N1CC2CN(c3ccncc3)CC2C1 (stereo not shown) [B53]
[2]
  Remaining Activity (%): — (Unless otherwise indicated with a numerical value, the percent remaining activity is baseline or about zero, i.e. as indicated by “—”)

## O=C(C1CN(S(=O)(=O)c2ccc3ccccc3c2)C1)N1CCN(c2ccncc2)CC1 [B77]
[1]
  Remaining Activity (%): ≧80%
  IC50: > 10 µM

## Cc1cc2c(S(=O)(=O)N3CC(C(=O)N4CC5CN(c6ccncc6)CC5C4)C3)cccc2cn1 (stereo not shown) [B60]
[2]
  Remaining Activity (%): — (Unless otherwise indicated with a numerical value, the percent remaining activity is baseline or about zero, i.e. as indicated by “—”)

## O=C(C1CN(S(=O)(=O)c2cccc3nonc23)C1)N1CCN(c2ccncc2)CC1 [B8]
  IC50: 0.29 µM
[2]
  Remaining Activity (%): — (Unless otherwise indicated with a numerical value, the percent remaining activity is baseline or about zero, i.e. as indicated by “—”)

## O=C(C1CN(S(=O)(=O)c2cccc3nonc23)C1)N1CCCN(c2ccncc2)CC1 [B32]
[1]
  Remaining Activity (%): 34%
  IC50: > 10 µM

## O=C(C1CN(S(=O)(=O)c2cccnc2Cl)C1)N1CCN(c2ccncc2)CC1 [B21]
  IC50: 0.86 µM
[2]
  Remaining Activity (%): — (Unless otherwise indicated with a numerical value, the percent remaining activity is baseline or about zero, i.e. as indicated by “—”)

## O=C(C1CN(S(=O)(=O)c2cccc3cnccc23)C1)N1CC2CN(c3ccccn3)CC2C1 (stereo not shown) [B4]
  IC50: 0.087 µM
[2]
  Remaining Activity (%): — (Unless otherwise indicated with a numerical value, the percent remaining activity is baseline or about zero, i.e. as indicated by “—”)

## O=C1CCc2cc(S(=O)(=O)N3CC(C(=O)N4CCN(c5ccncc5)CC4)C3)ccc2N1 [B79]
[1]
  Remaining Activity (%): ≧80%
  IC50: > 10 µM

## CCC(C)S(=O)(=O)N1CC(C(=O)N2CC3CN(c4ccncc4)CC3C2)C1 (stereo not shown) [B85]
[1]
  Remaining Activity (%): ≧80%
  IC50: > 10 µM

## O=C(C1CN(S(=O)(=O)c2cc(Cl)ccc2F)C1)N1CCN(c2ccncc2)CC1 [B35]
[1]
  Remaining Activity (%): 32%
  IC50: > 10 µM

## O=C(C1CN(S(=O)(=O)c2cccc3cnccc23)C1)N1CCc2cccnc2C1 [B51]
[1]
  Remaining Activity (%): 60%
  IC50: > 10 µM

## O=C(C1CN(S(=O)(=O)c2cccc3cnccc23)C1)N1CC2CN(c3ccncc3)CC2C1 (stereo not shown) [B3]
  IC50: 0.057 µM
[2]
  Remaining Activity (%): — (Unless otherwise indicated with a numerical value, the percent remaining activity is baseline or about zero, i.e. as indicated by “—”)

## CC(C)S(=O)(=O)N1CC(C(=O)N2CCN(c3ccncc3)CC2)C1 [B44]
[1]
  Remaining Activity (%): 59%
  IC50: > 10 µM

## O=C(C1CN(S(=O)(=O)c2ccc(Cl)cn2)C1)N1CCN(c2ccncc2)CC1 [B42]
[1]
  Remaining Activity (%): 34%
  IC50: > 10 µM

## O=C(C1CN(S(=O)(=O)c2cccc3nonc23)C1)N1CCN(c2ccccn2)CC1 [B31]
[1]
  Remaining Activity (%): 11%
  IC50: > 10 µM

## O=C(C1CN(S(=O)(=O)c2ccc3occc3c2)C1)N1CCN(c2ccncc2)CC1 [B24]
  IC50: 1.5 µM
[2]
  Remaining Activity (%): — (Unless otherwise indicated with a numerical value, the percent remaining activity is baseline or about zero, i.e. as indicated by “—”)

## O=C(C1CN(S(=O)(=O)c2cccc3c(Cl)nccc23)C1)N1CCN(c2ccncc2)CC1 [B17]
  IC50: 0.64 µM
[2]
  Remaining Activity (%): — (Unless otherwise indicated with a numerical value, the percent remaining activity is baseline or about zero, i.e. as indicated by “—”)

## Cc1cc(S(=O)(=O)N2CC(C(=O)N3CCN(c4ccncc4)CC3)C2)cnc1Cl [B7]
[2]
  Remaining Activity (%): — (Unless otherwise indicated with a numerical value, the percent remaining activity is baseline or about zero, i.e. as indicated by “—”)

## CC(C)S(=O)(=O)N1CC(C(=O)N2CC3CN(c4ccncc4)CC3C2)C1 (stereo not shown) [B84]
[1]
  Remaining Activity (%): ≧80%
  IC50: > 10 µM
